Test results as given in patent US11566007B2, “Ras inhibitors” (Revolution Medicines, Inc., priority 2019, dated 2023).
Where two headings read alike, the source gives them in different places.

Tests used:
[1] = tested on: NCI-H358 cells (K-Ras G12C); assay: Potency assay: pERK in NCI-H358 cells; type: cell-based, human; settings: H358 KRAS G12C, read-out: pERK EC50
Method: The purpose of this assay is to measure the ability of test compounds to inhibit K-Ras in cells. […] This procedure measures a decrease in cellular pERK in response to test compounds.
NCI-H358 cells were grown and maintained using media and procedures recommended by the ATCC. On the day prior to compound addition, cells were plated in 384-well cell culture plates (40 μl/well) and grown overnight in a 37° C., 5% CO2 incubator. Test compounds were prepared in 10, 3-fold dilutions in DMSO, with a high concentration of 10 mM. On the day of assay, 40 nL of test compound was added to each well of cell culture plate using an Echo550 liquid handler (LabCyte®). Concentrations of test compound were tested in duplicate. After compound addition, cells were incubated 4 hours at 37° C., 5% CO2. Following incubation, culture medium was removed and cells were washed once with phosphate buffered saline.
In some experiments, cellular pERK level was determined using the AlphaLISA SureFire Ultra p-ERK1/2 Assay Kit (PerkinElmer). Cells were lysed in 25 μL lysis buffer, with shaking at 600 RPM at room temperature. […] After a 2-hour incubation in the dark, 5 μL donor mix was added, plate was sealed, and incubated 2 hours at room temperature. Signal was read on an Envision plate reader (PerkinElmer) using standard AlphaLISA settings. Analysis of raw data was carried out in Excel (Microsoft) and Prism (GraphPad). Signal was plotted vs. the decadal logarithm of compound concentration, and IC50 was determined by fitting a 4-parameter sigmoidal concentration response model.
In other experiments, cellular pERK was determined by In-Cell Western. […] Fixed cells were washed 4 times for 5 minutes with TBS containing 0.1% Triton X-100 (TBST) and then blocked with 100 μL Odyssey blocking buffer (LI-COR) for 60 minutes at room temperature. […] Cells were washed 4 times for 5 minutes with TBST. Secondary antibody (IR-800CW rabbit, LI-COR, diluted 1:800) and DNA stain DRAQS (LI-COR, diluted 1:2000) were added and incubated 1-2 hours at room temperature. Cells were washed 4 times for 5 minutes with TBST. Plates were scanned on a Li-COR Odyssey CLx Imager. Analysis of raw data was carried out in Excel (Microsoft) and Prism (Graph Pad). Signal was plotted vs. the decadal logarithm of compound concentration, and IC50 was determined by fitting a 4-parameter sigmoidal concentration response model.

NCI-H358 (K-Ras G12C) = assay: CellTiter-Glo cell viability assay, NCI-H358; type: cell-based, human; settings: NCI-H358, 5-day treatment, class symbols, read-out: Additional H358 Cell Viability assay data (K-Ras G12C, IC50)
Method: Note—The following protocol describes a procedure for monitoring cell viability of K-Ras mutant cancer cell lines in response to a compound of the invention. Other RAS isoforms may be employed, though the number of cells to be seeded will vary based on cell line used.
Test compounds (132.5 nL) were directly dispensed into the assay plates containing cells. […] On day 5, assay plates and their contents were equilibrated to room temperature for approximately 30 minutes. […] Luminescence was measured using the PerkinElmer Enspire. Data were normalized by the following: (Sample signal/Avg. DMSO)*100. The data were fit using a four-parameter logistic fit.

SMILES	EC50 ([1]; Homo sapiens, NCI-H358)	IC50 (NCI-H358 (K-Ras G12C); Homo sapiens, NCI-H358, 120 h)	EC50 [1]	IC50 (NCI-H358 (K-Ras G12C))
C=CC(=O)N1CC[C@H](C(=O)N(C)[C@H](C(=O)N[C@H]2Cc3cc(O)cc(c3)-c3ccc4c(c3)c(c(-c3ccc(CC(=O)O)cc3)n4CC)CC(C)(C)COC(=O)[C@@H]3CCCN(N3)C2=O)C(C)C)C1 [Example A21]	< 5000 nM	> 1000 nM	–	–
C=CC(=O)N1CC[C@H](C(=O)N(C)[C@H](C(=O)N[C@H]2Cc3cc(O)cc(c3)-c3ccc4c(c3)c(c(-c3ccccc3[C@H](C)OC)n4CC)CC(C)(C)COC(=O)[C@@H]3CCCN(N3)C2=O)C(C)C)C1 [Example A22]	< 5000 nM	10 to 100 nM	–	–
C=CC(=O)N1CC[C@H](C(=O)N(C)[C@H](C(=O)N[C@H]2Cc3cc(O)cc(c3)-c3ccc4c(c3)c(c(-c3ccccc3)n4CC)CC(C)(C)COC(=O)[C@@H]3CCCN(N3)C2=O)C(C)C)C1 [Example A23]	< 5000 nM	100 to 1000 nM	–	–
C=CC(=O)N1CC[C@H](C(=O)N(C)[C@H](C(=O)N[C@H]2Cc3cc(O)cc(c3)-c3ccc4c(c3)c(c(-c3c(F)cccc3CCOC)n4CC)CC(C)(C)COC(=O)[C@@H]3CCCN(N3)C2=O)C(C)C)C1 [Example A25]	< 5000 nM	100 to 1000 nM	–	–
C=CC(=O)N1CC[C@H](C(=O)N(C)[C@H](C(=O)N[C@H]2Cc3cc(O)cc(c3)-c3ccc4c(c3)c(c(-c3ccccc3N3CCOCC3)n4CC)CC(C)(C)COC(=O)[C@@H]3CCCN(N3)C2=O)C(C)C)C1 [Example A26]	< 5000 nM	100 to 1000 nM	–	–
C=CC(=O)N1CC[C@H](C(=O)N(C)[C@H](C(=O)N[C@H]2Cc3cc(O)cc(c3)-c3ccc4c(c3)c(c(-c3ccccc3COC)n4CC)CC(C)(C)COC(=O)[C@@H]3CCCN(N3)C2=O)C2CCCC2)C1 [Example A27]	< 5000 nM	10 to 100 nM	–	–
C=CC(=O)N1CC[C@H](C(=O)N(C)[C@H](C(=O)N[C@H]2Cc3cc(O)cc(c3)-c3ccc4c(c3)c(c(-c3cnccc3COC)n4CC)CC(C)(C)COC(=O)[C@@H]3CCCN(N3)C2=O)C(C)C)C1 [Example A28, (2S)-N-[(8S,14S)-22-ethyl-4-hydroxy-21-[4-(methoxymethyl)pyridin-3-yl]-18,18-dimethyl-9,15-dioxo-16-oxa-10,22,28-triazapentacyclo[18.5.2.1^[2,6].1^[10,14].0^[23,27]]nonacosa-1(26),2,4,6(29),20,23(27),24-heptaen-8-yl]-3-methyl-2-[N-methyl-1-[(3S)-1-(prop-2-enoyl)pyrrolidin-3-yl]formamido]butanamide]	–	–	< 5000 nM	< 10 nM
C=CC(=O)N1CC[C@H](C(=O)N(C)[C@H](C(=O)N[C@H]2Cc3cc(O)cc(c3)-c3ccc4c(c3)c(c(-c3ccccc3[C@@H](C)OC)n4CC)CC(C)(C)COC(=O)[C@@H]3CCCN(N3)C2=O)C(C)C)C1 [Example A29]	< 5000 nM	100 to 1000 nM	–	–
C=CC(=O)N1CC[C@H](C(=O)N(C)[C@H](C(=O)N[C@H]2Cc3cc(O)cc(c3)-c3ccc4c(c3)c(c(-c3cccc(CN(C)C)c3)n4CC)CC(C)(C)COC(=O)[C@@H]3CCCN(N3)C2=O)C(C)C)C1 [Example A30]	< 5000 nM	10 to 100 nM	–	–
C=CC(=O)N1CC2(CCN([C@H](C(=O)N[C@H]3Cc4cc(O)cc(c4)-c4ccc5c(c4)c(c(-c4ccccc4CCOC)n5CC)CC(C)(C)COC(=O)[C@@H]4CCCN(N4)C3=O)C(C)C)C2=O)C1 [Example A31]	< 5000 nM	10 to 100 nM	–	–
C=CC(=O)N1CCC(C(=O)N(C)[C@H](C(=O)N[C@H]2Cc3cc(O)cc(c3)-c3ccc4c(c3)c(c(-c3ccccc3CN(C)C)n4CC)CC(C)(C)COC(=O)[C@@H]3CCCN(N3)C2=O)C(C)C)CC1 [Example A33]	< 5000 nM	100 to 1000 nM	–	–
C=CC(=O)N1CC[C@H](C(=O)N(C)[C@H](C(=O)N[C@H]2Cc3cc(O)cc(c3)-c3ccc4c(c3)c(c(-c3ccc5cc(CN(C)C)n(C)c5c3)n4CC)CC(C)(C)COC(=O)[C@@H]3CCCN(N3)C2=O)C(C)C)C1 [Example A35]	< 5000 nM	10 to 100 nM	–	–
CCn1c(-c2ccccc2CCOC)c2c3cc(ccc31)-c1cc(O)cc(c1)C[C@H](NC(=O)[C@H](C(C)C)N(C)C(=O)[C@H]1CCN(C(=O)C#CCN(C)C)C1)C(=O)N1CCC[C@H](N1)C(=O)OCC(C)(C)C2 [Example A38]	< 5000 nM	< 10 nM	–	–
C=CC(=O)N1CC[C@H](C(=O)N(C)[C@H](C(=O)N[C@H]2Cc3cc(O)cc(c3)-c3ccc4c(c3)c(c(-c3ccc(C5CCN(C)CC5)cc3)n4CC)CC(C)(C)COC(=O)[C@@H]3CCCN(N3)C2=O)C(C)C)C1 [Example A39]	< 5000 nM	10 to 100 nM	–	–
C=CC(=O)N1CC[C@H](C(=O)N(C)[C@H](C(=O)N[C@H]2Cc3cc(O)cc(c3)-c3ccc4c(c3)c(c(-c3ccc5c(c3)CCN(C)C5)n4CC)CC(C)(C)COC(=O)[C@@H]3CCCN(N3)C2=O)C(C)C)C1 [Example A40]	< 5000 nM	10 to 100 nM	–	–
C=CC(=O)N1C[C@H](C)[C@H](C(=O)N(C)[C@H](C(=O)N[C@H]2Cc3cc(O)cc(c3)-c3ccc4c(c3)c(c(-c3ccccc3CCOC)n4CC)CC(C)(C)COC(=O)[C@@H]3CCCN(N3)C2=O)C(C)C)C1 [Example A41]	< 5000 nM	10 to 100 nM	–	–
C=CC(=O)N1CC[C@H](C(=O)N(C)[C@H](C(=O)N[C@H]2Cc3cc(N)cc(c3)-c3ccc4c(c3)c(c(-c3ccccc3COC)n4CC)CC(C)(C)COC(=O)[C@@H]3CCCN(N3)C2=O)C(C)C)C1 [Example A42]	< 5000 nM	100 to 1000 nM	–	–
C=CC(=O)N1C[C@H](C)[C@H](C(=O)N(C)[C@H](C(=O)N[C@H]2Cc3cc(O)cc(c3)-c3ccc4c(c3)c(c(-c3ccccc3CN(C)C)n4CC)CC(C)(C)COC(=O)[C@@H]3CCCN(N3)C2=O)C2CCCC2)C1 [Example A43]	< 5000 nM	10 to 100 nM	–	–
C=CC(=O)N1CC[C@H](C(=O)N(C)[C@H](C(=O)N[C@H]2Cc3cc(O)cc(c3)-c3ccc4c(c3)c(c(-c3cccnc3COCC)n4CC)CC(C)(C)COC(=O)[C@@H]3CCCN(N3)C2=O)C(C)C)C1 [Example A44]	< 5000 nM	10 to 100 nM	–	–
C=CC(=O)N1CC[C@H](C(=O)N(C)[C@H](C(=O)N[C@H]2Cc3cc(O)cc(c3)-c3ccc4c(c3)c(c(-c3cccnc3)n4CC)CC(C)(C)COC(=O)[C@@H]3CCCN(N3)C2=O)C(C)C)C1 [Example A45]	< 5000 nM	10 to 100 nM	–	–
CCn1c(-c2ccccc2CN(C)C)c2c3cc(ccc31)-c1cc(O)cc(c1)C[C@H](NC(=O)[C@H](C(C)C)N(C)C(=O)c1ccc(NC(=O)/C=C/CN(C)C)cn1)C(=O)N1CCC[C@H](N1)C(=O)OCC(C)(C)C2 [Example A46]	< 5000 nM	> 1000 nM	–	–
CCn1c(-c2ccccc2CN(C)C)c2c3cc(ccc31)-c1cc(O)cc(c1)C[C@H](NC(=O)[C@H](C(C)C)N(C)C(=O)[C@H]1CCN(C(=O)/C=C/CN(C)C)C1)C(=O)N1CCC[C@H](N1)C(=O)OCC(C)(C)C2 [Example A47]	< 5000 nM	10 to 100 nM	–	–
C=CC(=O)N1CC[C@H](C(=O)N(C)[C@H](C(=O)N[C@H]2Cc3cc(O)cc(c3)-c3ccc4c(c3)c(c(-c3ccc5c(c3)OCCN5C)n4CC)CC(C)(C)COC(=O)[C@@H]3CCCN(N3)C2=O)C(C)C)C1 [Example A50]	< 5000 nM	100 to 1000 nM	–	–
C=CC(=O)N1CC[C@H](C(=O)N(C)[C@H](C(=O)N[C@H]2Cc3cc(O)cc(c3)-c3ccc4c(c3)c(c(-c3ccc(CN(C)C)cc3COC)n4CC)CC(C)(C)COC(=O)[C@@H]3CCCN(N3)C2=O)C(C)C)C1 [Example A51]	< 5000 nM	10 to 100 nM	–	–
